Measurements taken from patent US12115154B2, “Compounds for the modulation of proprotein convertase subtilisin/kexin type 9 (PCSK9)” (SRX Cardio, LLC, priority 2020, dated 2024).

Key:
PCSK9 = molecular target: T1, PCSK9 (Homo sapiens, UniProt Q8NBP7); assay: Biodesy Direct Binding Measurement (second harmonic generation); conditions: Biodesy Delta System
T1 construct: purchased Cayman Chemical 20631; host or cells: added to HepG2, HuH7, FL83B or shPCSK9 knock-down lines
Excerpt: The compounds of the present disclosure may be tested for binding to, inhibition of, and/or modulation of PCSK9 activity according to the following protocols.
Direct binding can be measured using the commercially available Biodesy Delta System (BDS, http://www.biodesy.com/products/; accessed Aug. 1, 2018). The BDS is a laser-based approach that utilizes second harmonic generation from a labeled protein to detect ligand binding, the method of which is covered and described by U.S. Pat. Nos. 9,395,358 and 8,932,822, and has been commercialized by Biodesy Inc. (South San Francisco, Calif.).

[1] = In vivo PK in mice (IV and PO); conditions: male, C57BL/6, mouse, plasma, 3 mg/kg IV versus 15 mg/kg PO, read-out: oral bioavailability (F %)
Protocol: (§1) A representative compound (Compound 1041) was tested for oral bioavailability and efficacy in mice. Male C57BL/6 mice were purchased from Taconic Biosciences (Rensselaer, New York) and housed under standard conditions with the exception of being provided a high fat diet (#TD.90221, Envigo, Madison, Wis.) and water ad libitum. Following 4 weeks of diet acclimation the animals were then dosed with compound or vehicle as control specimens. Compound readily dissolved at 1.5 mg/ml in a 1% Tween-80 aqueous solution with 10-15 minutes sonication. This solution was used at the 1.5 mg/ml concentration for oral (PO) dosing or further diluted with sterile saline for intravenous (IV) dosing.
Test animals received a single dose at 3 mg/kg by IV or 15 mg/kg by PO while control animals received an equal volume of vehicle control by IV or PO, respectively. Plasma samples were collected at 0.25, […], 1, 2, 3, 6, 8, 24, and 48 hours while liver specimens were collected at 8, 24, and 48 hours and drug concentration were measured by LC-MS/MS per standard protocols.
In brief, blood was immediately centrifuged, and the resulting plasma was frozen and stored at −80° C. until analysis. […] Compound concentrations were determined by a liquid chromatography-mass tandem spectrometry (LC-MS/MS) per routine method (Quintana Discovery, Hayward, Calif.) following the standard protocol. […]

Male C57BL/6 mice [2] = assay: In vivo efficacy: serum LDL in high fat diet mice; conditions: for reduction in LDL: daily PO 15 mg/kg
Protocol: as §1
[…] Plasma samples were collected at 0.25, […], 1, 2, 3, 6, 8, 24, and 48 hours while liver specimens were collected at 8, 24, and 48 hours and drug concentration were measured by LC-MS/MS per standard protocols.
Serum lipid levels were measured using commercially available veterinary health testing services provided by IDEXX BioAnalytics (North Grafton, Mass.). Blood specimens were collected from the animals and the resulting serum was frozen and stored at −80° C. until analysis. Specimens were measured using the commercial service's standard procedures for the Rodent Lipid Panel (Test Code #6290).

Male C57BL/6 mice [3] = assay: Liver panel (animal health) in high fat diet mice; type: in vivo
Protocol: as §1
To assess animal health following compound exposure, a liver panel (Test Code #60405) was tested by IDEXX BioAnalytics (North Grafton, Mass.). […] Also of note, AST and ALT levels in the liver panel were elevated in the PO vehicle, which is attributed to the high fat diet used in the study (Envigo, #TD.90221).

[4] = Dissolution in dosing solution; type: physicochemical; conditions: 1% Tween-80 aqueous solution, 10-15 minutes sonication
Protocol: as §1

[5] = daily 15 mg/kg PO, 72-hour group, versus vehicle control

T1 sequence (Q8NBP7 153-692): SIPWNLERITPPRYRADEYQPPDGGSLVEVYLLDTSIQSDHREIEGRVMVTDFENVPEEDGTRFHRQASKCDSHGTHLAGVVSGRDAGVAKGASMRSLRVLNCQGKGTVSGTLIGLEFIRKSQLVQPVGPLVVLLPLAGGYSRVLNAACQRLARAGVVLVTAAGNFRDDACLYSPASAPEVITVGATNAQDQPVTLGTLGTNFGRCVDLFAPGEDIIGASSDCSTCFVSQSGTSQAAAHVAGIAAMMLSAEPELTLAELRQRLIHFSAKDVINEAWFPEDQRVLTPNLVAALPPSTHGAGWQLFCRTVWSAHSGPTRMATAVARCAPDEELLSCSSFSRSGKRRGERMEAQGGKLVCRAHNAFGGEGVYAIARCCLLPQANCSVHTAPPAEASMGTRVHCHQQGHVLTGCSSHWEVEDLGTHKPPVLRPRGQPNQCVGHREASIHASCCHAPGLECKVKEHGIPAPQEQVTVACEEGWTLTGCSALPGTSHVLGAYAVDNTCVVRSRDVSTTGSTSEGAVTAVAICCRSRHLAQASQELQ

Row | ASHG (PCSK9) [%] | SMILES | bioavailability [1] [%] | reduction in LDL (Male C57BL/6 mice [2]; at 48 hours (dosed at t=0 and t=24 hours)) [%] | reduction in LDL (Male C57BL/6 mice [2]; at 72 hours (dosed at t=0, t=24, t=48 hours)) [%] | reduction in LDL relative to IV vehicle control group (Male C57BL/6 mice [2]; single 3 mg/kg IV dose, 48 hours after dosing) [%] | reduction in LDL relative to PO vehicle control group (Male C57BL/6 mice [2]; single 15 mg/kg PO dose, 48 hours after dosing) [%] | reduction in ALT levels (Male C57BL/6 mice [3]; [5]) [%] | reduction in AST levels (Male C57BL/6 mice [3]; [5]) [%] | liver panel toxicity (Male C57BL/6 mice [3]; three daily 15 mg/kg PO doses, 72 hours, versus PO vehicle) | concentration readily dissolved [4] [µg/mL]
1 | > 10 | Fc1ccc(-c2ccc(C3CCCN(CC4CC4)C3)cc2)cc1 (stereo not shown) [Compound 1.001, 1-(cyclopropylmethyl)-3-(4′-fluoro-[1,1′-biphenyl]-4-yl)piperidine] | – | – | – | – | – | – | – | – | –
2 | – | Cc1cc(-c2ccc(F)cc2)ccc1C1CCCN(C2CCCC2)C1 (stereo not shown) [Compound 1.041, 1-cyclopentyl-3-(4′-fluoro-3-methyl-[1,1′-biphenyl]-4-yl)piperidine] | 44 | 32 | 50 | 19 | 32 | 77.7 | 72.1 | no overt toxicity | ≥ 1500
